Assays:
Sprague-Dawley rat = experiment: Single dose toxicity in rats; type: in vivo
Description: The objective of this study was to determine the toxicity and toxicokinetic profile of noribogaine HCl following a single oral (gavage) administration in the Sprague-Dawley rat. A single dose of 100, 300 and 800 mg/kg (achieved with doses of 400 mg/kg 3 h+/−30 min apart because of the limitations of maximum dose formulation concentration). Five male rats/group were used. […] Hypoactivity, vocalization, chewing movements, changes in respiration/posture, salivation, stimuli sensitivity, tremors, twitches and penile erection occurred prior to death. […] The NOAEL was determined to be 100 mg/kg.

Sprague-Dawley rats = experiment: Fourteen day repeat dose toxicity in rats; type: in vivo, rat
Description: This study was conducted to evaluate the toxicity profile of noribogaine-HCl following oral (gavage) administration to the rat for 14 days following Table 2 below:
Male and female Sprague-Dawley rats, 10/sex/group, were administered 0, 25, 50 or 100 mg/kg noribogaine HCl daily by single oral gavage for 14 days. An additional 5 rats/sex/group in the 0 (control) and 100 mg/kg groups were retained for a 28 day recovery period during which no drug was administered. Six rats/sex/group (3 rats/sex controls) were similarly dosed and sampled on study days 1 and 14 for analysis of noribogaine-HCl concentrations in the blood.

dogs = experiment: Fourteen day repeat dose toxicity in dogs; type: in vivo, dog
Description: The objective of this study was to determine the toxicity profile of noribogaine HCl given following oral (gavage) administration to dogs for 14 days according to the following Table 3 below:
Noribogaine HCl was administered to groups of 4 male and 4 female dogs by single oral gavage daily for 14 days at doses of 0, 0.5, 1.0 and 5.0 mg/kg/day. An additional group of 4 male and 4 female dogs received either the vehicle control or 5.0 mg/kg/day for 14 days and were held for an additional 28 days after cessation of dosing to assess recovery from any potential drug-induced changes. The study was conducted under GLP guidelines and included comprehensive examinations of clinical signs, body weight, clinical pathology parameters, ophthalmologic examinations, ECG recordings and analyses of plasma for bioanalytical measurement of drug levels at appropriate intervals during the study. At the termination of the dosing phase and at the termination of the recovery phase, all dogs were subjected to a complete post-mortem examination including gross examination of major organs and histologic examination of an extensive list of tissues. Additional sections of brain were obtained from cerebrum, cerebellus, brain stem and spinal cord and examined histologically to evaluate potential effects on brain histopathology. In addition, these sections were examined with immunohistochemical stains for GFAP for evidence of gliosis and Calbindin for a more comprehensive examination of cerebellar Purkinje cells.

[1] = Human pharmacokinetic study, single oral tablet, fasting healthy volunteers (serum levels); type: in vivo; conditions: 3, 10, 30 or 60 mg once orally, healthy volunteers
Description: In double blind studies, fasting healthy volunteers (6 per cohort) were treated once orally with a tablet of noribogaine HCl. In escalating cohorts, the volunteers received 3 mg, 10 mg, 30 mg or 60 mg noribogaine.

[2] = Pharmacokinetics of noribogaine in healthy male volunteers (plasma and urine, LCMSMS); conditions: for AUC0-216 / AUC0-∞ / Cmax / Tmax / t½: mean (SD)
[3] = glucuronide in plasma after 30 mg noribogaine (n = 6)
[4] = glucuronide in plasma after 60 mg noribogaine (n = 6)
[5] = plasma, 30 mg and 60 mg dose groups

CC[C@@H]1C[C@H]2CC3c4[nH]c5ccc(O)cc5c4CCN(C2)C31.Cl [noribogaine HCl]
Treatment related signs (Sprague-Dawley rat; 100 mg/kg): did not show any treatment related signs
Rats with clinical signs (hypoactivity, vocalization, salivation, stimuli sensitivity, loss of limb function, lying on cage floor) persisting until Day 2 (Sprague-Dawley rat; 300 mg/kg): 3/5
Mortality (Sprague-Dawley rat; 800 mg/kg (two doses of 400 mg/kg 3 h apart), oral gavage, 5 male rats): Mortality occurred in all male rats
Time of mortality after administration of the second dose (Sprague-Dawley rat; 800 mg/kg group): 2 to 3 h
NOAEL (Sprague-Dawley rat; single oral gavage, male rats): 100 mg/kg
Body weight change (Sprague-Dawley rats; 100 mg/kg, females): −2.6%
Body weight change (Sprague-Dawley rats; 100 mg/kg, males): −5.5%
Food consumption change (Sprague-Dawley rats; 100 mg/kg, males and females): −4.7%
Test article-related effects on mortality, clinical signs, ophthalmoscopy, hematology, coagulation, clinical chemistry, urinalysis, gross necropsy, histopathology (Sprague-Dawley rats; 25, 50 or 100 mg/kg daily oral gavage, 14 days): no test article-related effects
Brain sections stained for GFAP or Calbindin (Sprague-Dawley rats; 14 days oral gavage): No treatment-related differences
NOAEL (Sprague-Dawley rats; 14 days oral gavage, highest dose tested): 100 mg/kg
Liver weight (Sprague-Dawley rats; mid- and high dose groups): Minor increases in liver weight
Lacrimal gland changes (only target tissue) (dogs; 5 mg/kg/day): slight to moderate atrophy and degeneration of the acinar cells
Lacrimal gland change after 28 days recovery (dogs; 5 mg/kg/day recovery group): clear evidence of regeneration
Adverse effect in clinical observations, body weights, clinical pathology, ophthalmology, ECG, gross lesions (dogs; 0.5, 1.0, 5.0 mg/kg/day oral gavage 14 days, dosing or recovery phase): No evidence of adverse effect
NOAEL (dogs; 14 days oral gavage, based on lacrimal gland changes at 5 mg/kg/day): 1 mg/kg/day
Clinically relevant adverse effects [1]: no clinically relevant adverse effects were observed

CC[C@H]1C[C@@H]2C[C@H]3c4[nH]c5ccc(OC6OC(C(=O)O)C(O)C(O)C6O)cc5c4CCN(C2)[C@@H]13 (stereo partly shown) [Noribogaine glucuronide, noribogaine glucuronide]
Proportion of Cmax and AUC relative to noribogaine ([2]; both dose groups (30 mg, 60 mg)): 3-4%
AUC0-216 [2, 3]: 25.7 (9.1) ng · hr/ml
AUC0-∞ [2, 3]: 25.8 (9.3) ng · hr/ml
Cmax [2, 3]: 1.8 (0.6) ng/ml
Tmax [2, 3]: 3.0 (0.6) hr
t½ [2, 3]: 20.6 (4.9) hr
AUC0-216 [2, 4]: 65.0 (21.5) ng · hr/ml
AUC0-∞ [2, 4]: 67.1 (21.9) ng · hr/ml
Cmax [2, 4]: 4.1 (1.2) ng/ml
Tmax [2, 4]: 3.8 (1.2) hr
t½ [2, 4]: 23.1 (3.0) hr
Mean half-life [2, 5]: 21 to 23 h
Time of peak concentrations after noribogaine dosing [2, 5]: 3 to 4 h
Time by which detected in all subjects ([2]; plasma, after 30 mg and 60 mg noribogaine): ≤ 0.75 h

From US20150258107A1, “METHODS AND COMPOSITIONS FOR TREATING DEPRESSION” (DemeRx, Inc., priority 2014, published 2015)
